# Test results taken from patent US20240042019A1, “OPTIMIZED TLR7 LIGANDS AND USES THEREOF” (Genentech, Inc., priority 2021, published 2024).
# Legend:
# [1] = target: T1, TLR7 (Homo sapiens, UniProt Q9NYK1); experiment: PBMC stimulation with DOTAP-complexed RNA ligands, IFN-α ELISA; assay type: cell-based
# T1 construct: Peripheral blood mononuclear cells (PBMCs) were obtained from buffy coats from healthy adult donors; endogenous in cells; host or cells: primary human PBMCs from healthy donor buffy coats (TLR7 expressed by pDCs)
# T1 sequence (Q9NYK1 27-1049): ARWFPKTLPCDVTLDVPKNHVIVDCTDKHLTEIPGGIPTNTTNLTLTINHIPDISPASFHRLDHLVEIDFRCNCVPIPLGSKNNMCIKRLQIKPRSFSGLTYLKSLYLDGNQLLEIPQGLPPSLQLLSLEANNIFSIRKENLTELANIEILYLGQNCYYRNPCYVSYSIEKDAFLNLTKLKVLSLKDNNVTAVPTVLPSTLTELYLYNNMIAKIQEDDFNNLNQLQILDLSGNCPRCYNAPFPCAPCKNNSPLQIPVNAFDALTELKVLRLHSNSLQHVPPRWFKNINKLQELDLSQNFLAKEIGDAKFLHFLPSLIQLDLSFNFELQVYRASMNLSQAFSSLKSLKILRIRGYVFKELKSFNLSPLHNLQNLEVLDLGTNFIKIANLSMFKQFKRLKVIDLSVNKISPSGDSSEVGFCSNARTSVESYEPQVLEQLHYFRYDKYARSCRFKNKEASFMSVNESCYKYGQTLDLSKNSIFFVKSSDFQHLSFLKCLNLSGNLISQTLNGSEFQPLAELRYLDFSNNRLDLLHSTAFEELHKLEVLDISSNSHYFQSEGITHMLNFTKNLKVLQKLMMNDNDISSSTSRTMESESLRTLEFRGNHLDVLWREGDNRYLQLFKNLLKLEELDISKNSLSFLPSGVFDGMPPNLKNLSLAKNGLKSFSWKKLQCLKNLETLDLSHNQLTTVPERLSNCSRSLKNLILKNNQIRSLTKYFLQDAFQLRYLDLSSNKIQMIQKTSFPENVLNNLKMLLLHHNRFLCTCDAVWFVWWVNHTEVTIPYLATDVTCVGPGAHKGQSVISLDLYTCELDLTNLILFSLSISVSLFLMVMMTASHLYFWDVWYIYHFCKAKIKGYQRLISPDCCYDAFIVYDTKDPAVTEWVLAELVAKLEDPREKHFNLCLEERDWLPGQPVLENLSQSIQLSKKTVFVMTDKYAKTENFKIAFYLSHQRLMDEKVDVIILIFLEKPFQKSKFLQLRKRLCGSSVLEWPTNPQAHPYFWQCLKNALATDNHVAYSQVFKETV
# [2] = target: T2, TLR8 (Homo sapiens, UniProt Q9NR97); experiment: PBMC stimulation with DOTAP-complexed RNA ligands, TNF-α ELISA; assay type: cell-based
# T2 construct: Peripheral blood mononuclear cells (PBMCs) were obtained from buffy coats from healthy adult donors; endogenous in cells; host or cells: primary human PBMCs from healthy donor buffy coats (TLR8 in monocytes)
# T2 sequence (Q9NR97 27-1041): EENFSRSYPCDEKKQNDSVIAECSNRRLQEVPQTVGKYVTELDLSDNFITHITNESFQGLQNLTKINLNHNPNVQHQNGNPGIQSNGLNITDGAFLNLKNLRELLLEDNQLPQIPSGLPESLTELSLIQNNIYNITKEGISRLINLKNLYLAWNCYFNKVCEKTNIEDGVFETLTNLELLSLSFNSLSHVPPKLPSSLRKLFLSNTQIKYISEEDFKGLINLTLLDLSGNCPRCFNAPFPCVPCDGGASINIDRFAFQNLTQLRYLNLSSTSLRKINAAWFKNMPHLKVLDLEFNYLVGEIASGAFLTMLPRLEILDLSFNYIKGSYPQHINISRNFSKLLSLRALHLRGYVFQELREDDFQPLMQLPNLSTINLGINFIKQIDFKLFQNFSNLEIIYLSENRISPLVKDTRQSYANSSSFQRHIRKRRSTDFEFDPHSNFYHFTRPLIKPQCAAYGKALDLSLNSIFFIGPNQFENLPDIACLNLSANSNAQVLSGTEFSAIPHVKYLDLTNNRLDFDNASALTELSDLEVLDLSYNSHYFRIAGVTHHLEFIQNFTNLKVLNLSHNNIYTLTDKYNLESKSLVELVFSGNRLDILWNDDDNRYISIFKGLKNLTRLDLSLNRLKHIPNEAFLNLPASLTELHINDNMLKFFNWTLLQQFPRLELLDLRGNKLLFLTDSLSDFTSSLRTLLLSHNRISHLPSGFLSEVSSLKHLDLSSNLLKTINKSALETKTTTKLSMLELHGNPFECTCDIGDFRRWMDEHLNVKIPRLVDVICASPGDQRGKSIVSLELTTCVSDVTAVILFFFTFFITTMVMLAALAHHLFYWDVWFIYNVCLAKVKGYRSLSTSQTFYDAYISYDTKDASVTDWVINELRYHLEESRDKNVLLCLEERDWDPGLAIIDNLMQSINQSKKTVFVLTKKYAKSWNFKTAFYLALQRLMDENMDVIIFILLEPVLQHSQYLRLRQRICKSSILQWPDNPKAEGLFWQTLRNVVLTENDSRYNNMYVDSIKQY
# [3] = target: T1, TLR7; experiment: PBMC stimulation with p-L-arginine-complexed RNA ligands, IFN-α ELISA; assay type: cell-based
# Method: Peripheral blood mononuclear cells (PBMCs) were obtained from buffy coats from healthy adult donors. Buffy coat samples were first diluted with an equal volume of phosphate-buffered saline (PBS). Next, PBMCs were isolated via density gradient centrifugation with Lymphoprep density gradient media ([…] Technologies) and SepMate-50 tubes ([…] Technologies). Samples were centrifuged at 1000 g for 15 minutes. After centrifugation, the upper layers were collected by pouring into a new tube, diluted with PBS, and centrifuged at 450×g for 5 minutes. To lyse red blood cells, cell pellets were resuspended with 10 mL Ammonium-Chloride-Potassium (ACK) Lysis Buffer and incubated for 8 minutes at room temperature. After lysis, cells were washed with PBS and passed through two 70 μm cell strainers. Viable cell counts were determined with a Vi-CELL cell counter (Beckman Coulter). […] Guanosine was added between about 20 and about 30 minutes before the addition of poly-[…])-complexed RNA. […] After mixing by pipetting up and down, the reaction was incubated for 10 minutes, pipetted up and down again, and then added to the cells. In some experiments, RNA ligands were used at a final concentration of 0.6 μg/ml. Where indicated as “+2'3' cGMP”, 2'3' cyclic GMP purchased from eMolecules was complexed together with the RNA ligands. The final concentration of 2'3' cyclic GMP was 5 μg/ml. p-L-arginine was adjusted accordingly to keep the mass ratio of nucleic acid:p-L-arginine constant. Cell culture supernatants were collected 15-18 hours after stimulation and stored at -80° C. Cytokines in cell culture supernatants were detected with the BD OptEIA human TNF ELISA Set (BD Biosciences), and either Invitrogen IFN alpha Human Matched Antibody Pair kit (Thermo Fisher Scientific) or Human IFN Alpha Multi-Subtype ELISA Kit (PBL Assay Science). To test the effects of the RNA ligands described in Example 1 on TLR7 and TLR8 activation, PBMCs were stimulated with the RNA ligands using p-L-arginine complex delivery, delivery with DOTAP, or delivery without a carrier. Activity of TLR7 and TLR8 was assessed based on measurements of IFN-α or TNF-α by enzyme-linked immunosorbent assays (ELISA). In this setting, as depicted in FIG. 6, IFN-α induced by small RNAs is derived from TLR7 expressed by pDCs, or from RIG-I expressed by monocytes. In contrast, TNF-α secretion is derived from monocytes and serves as an indication of TLR8 activation. As shown in this figure, the p-L-arginine delivery restricts most of the activation to TLRs. First, the effects of the RNA ligands on TLR7 and TLR8 activation using p-L-arginine complex delivery were tested.
# [4] = target: recombinant RNase T2 (Homo sapiens, UniProt O00584)
# Chain of recombinant RNase T2 (O00584 25-256, species assumed): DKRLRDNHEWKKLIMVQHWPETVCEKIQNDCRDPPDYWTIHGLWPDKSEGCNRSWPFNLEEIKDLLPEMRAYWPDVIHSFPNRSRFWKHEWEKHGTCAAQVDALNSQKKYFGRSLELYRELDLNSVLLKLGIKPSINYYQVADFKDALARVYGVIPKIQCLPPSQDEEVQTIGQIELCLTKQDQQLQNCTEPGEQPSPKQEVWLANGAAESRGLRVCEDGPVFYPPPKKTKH
# [5] = test system: pDC-depleted PBMCs; experiment: IFN-α secretion by pDC-depleted PBMCs versus PBMCs; assay type: cell-based, human; conditions: Lipofectamine-mediated transfection, pDC-depleted PBMCs vs PBMCs (FIG. 8)
# Method: Peripheral blood mononuclear cells (PBMCs) were obtained from buffy coats from healthy adult donors. Buffy coat samples were first diluted with an equal volume of phosphate-buffered saline (PBS). Next, PBMCs were isolated via density gradient centrifugation with Lymphoprep density gradient media ([…] Technologies) and SepMate-50 tubes ([…] Technologies). Samples were centrifuged at 1000 g for 15 minutes. After centrifugation, the upper layers were collected by pouring into a new tube, diluted with PBS, and centrifuged at 450×g for 5 minutes. To lyse red blood cells, cell pellets were resuspended with 10 mL Ammonium-Chloride-Potassium (ACK) Lysis Buffer and incubated for 8 minutes at room temperature. After lysis, cells were washed with PBS and passed through two 70 μm cell strainers. Viable cell counts were determined with a Vi-CELL cell counter (Beckman Coulter). […]
# Cell culture supernatants were collected 15-18 hours after stimulation and stored at −80° C. Cytokines in cell culture supernatants were detected with the BD OptEIA human TNF ELISA Set (BD Biosciences), and either Invitrogen IFN alpha Human Matched Antibody Pair kit (Thermo Fisher Scientific) or Human IFN Alpha Multi-Subtype ELISA Kit (PBL Assay Science). […]
Substance,IFN-α secretion (TLR7 activity) [1],TNF-α secretion (TLR8 activity) [2],IFN-α secretion (TLR7 activity) [3],Degradation of full RNA ligand by RNase T2 [4],IFN-α secretion after pDC depletion [5]
"CCUUCUUCUUCUUCUUCUUC (CCUUCUUCUUCUUCUUCUUC; all phosphodiester, sugars by position not given here) [ORN7009, reference compound]",activated TLR8 rather than TLR7,activated TLR8,no or only minor IFN-α secretion,degraded more quickly,–
"GGGACGCUGACCCAGAAGAUCACUAGAAAUAGUAGAUCUUCUGGGUCAGCGUCCC (GGGACGCUGACCCAGAAGAUCACUAGAAAUAGUAGAUCUUCUGGGUCAGCGUCCC; RNA, phosphodiester; in vitro transcribed, further chemistry not given here) [IVT4, in vitro transcribed control, RIG-I ligand 3P-RNA]",–,–,–,–,maintained after pDC depletion
